According to PMC6001238, “Iterative Chemical Engineering of Vancomycin Leads to Novel Vancomycin Analogs With a High in Vitro Therapeutic Index” (Frontiers in Microbiology, 2018):
In brackets after ≈: the same amount, converted by molar mass. Where two headings read alike, the source gives them in different places.

Assays:
E. coli XL-1 blue MRF' = experiment: MIC, broth microdilution, E. coli XL-1 blue MRF'; type: cell-based, Escherichia coli; settings: E. coli XL-1 blue MRF'; for MICvanc/MICi: ratio of MIC of vancomycin and MIC of analogue
Experimental: (§1) The minimum inhibitory concentration (MIC) was determined using the broth microdilution method according to the antimicrobial susceptibility testing standards of the clinical and laboratory standards institute ([Clinical and Laboratory Standards Institute [CLSI], 2012]). Ultrapure water and non-inoculated broth were used as controls. In one case, a final concentration of 10 μM vancomycin was included with the vancomycin analog or control antibiotic.

MRSA KS89 = experiment: MIC, broth microdilution, MRSA KS89; type: cell-based, Staphylococcus aureus; settings: for MIC-fold improvement vs. vancomycin: MRSA KS8, ratio of MIC of vancomycin and MIC of analogue; for MIC: Staphylococcus aureus MRSA KS8, read-out: MIC
In short: (§2)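 Assayed by broth microdilution under CLSI antimicrobial testing rules. One case paired the analog or control drug with vancomycin at a 10 μM final concentration; water and inoculum-free broth were controls.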

[1] = test system: human T-lymphocyte (CEM) cells; experiment: Cytostatic activity, CEM cell proliferation; type: cell-based; settings: mean ± SD of three experiments; highest concentration tested 250 µM; 3 days; read-out: Toxicity (IC50) CEM
In short: (§3)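 Readout: Coulter cell number after drug exposure at 37°C. Durations differ by line (L1210 2 days; CEM 3 days; HeLa 4 days). Stock suspension 300,000–500,000 cells/mL, diluted by mixing with compound. Endpoint: IC50 vs negative control.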

MRSA KS2 = experiment: MIC, broth microdilution, MRSA KS2; type: cell-based, Staphylococcus aureus; settings: for MIC: Staphylococcus aureus MRSA KS2, read-out: MIC
In short: as §2

[2] = test system: S. aureus VSSA (ATCC 6538); experiment: MIC, broth microdilution, vancomycin-sensitive S. aureus (VSSA/MSSA, ATCC 6538); type: cell-based, Staphylococcus aureus; settings: for MIC: Staphylococcus aureus VSSA, read-out: MIC
In short: as §2

E. faecalis VRE 53 = experiment: MIC, broth microdilution, vancomycin-resistant E. faecalis VRE 53 (VanA); type: cell-based, Enterococcus faecalis; settings: for MICvanc/MICi / MIC-fold improvement vs. vancomycin: ratio of MIC of vancomycin and MIC of analogue; for MIC: read-out: MIC; for MIC-fold improvement vs. vancomycin: VRE 53
In short: as §2

S. aureus VISA/HIP5827 = experiment: MIC, broth microdilution, vancomycin-intermediate S. aureus VISA HIP5827; type: cell-based, Staphylococcus aureus; settings: for MIC: Staphylococcus aureus VISA/HIP5827, read-out: MIC; for MIC-fold improvement vs. vancomycin: VISA/HIP5827, ratio of MIC of vancomycin and MIC of analogue
In short: as §2

[3] = test system: L1210, CEM and HeLa cell lines; experiment: Cytostatic activity, average or summary over L1210, CEM and HeLa; type: cell-based
In short: as §3

MRSA KS6 = experiment: MIC, broth microdilution, MRSA KS6; type: cell-based, Staphylococcus aureus; settings: for MIC-fold improvement vs. vancomycin: MRSA KS6, ratio of MIC of vancomycin and MIC of analogue; for MIC: Staphylococcus aureus MRSA KS6, read-out: MIC
In short: as §2

[4] = test system: human cervix carcinoma (HeLa) cells; experiment: Cytostatic activity, HeLa cell proliferation; type: cell-based; settings: mean ± SD of three experiments; highest concentration tested 250 µM; 4 days; read-out: Toxicity (IC50) HeLa
In short: as §3

E. faecalis VRE 6 = experiment: MIC, broth microdilution, vancomycin-resistant E. faecalis VRE 6 (VanA); type: cell-based, Enterococcus faecalis; settings: for MICvanc/MICi / MIC-fold improvement vs. vancomycin: ratio of MIC of vancomycin and MIC of analogue; for MIC: read-out: MIC; for MIC-fold improvement vs. vancomycin: VRE 6
In short: as §2

[5] = test system: Murine leukemia (L1210) cells; experiment: Cytostatic activity, L1210 cell proliferation; type: cell-based; settings: mean ± SD of three experiments; highest concentration tested 250 µM; 2 days; read-out: Toxicity (IC50) L1210
In short: as §3

S. aureus VRSA = experiment: MIC, broth microdilution, vancomycin-resistant S. aureus (VRSA); type: cell-based, Staphylococcus aureus; settings: for MIC: Staphylococcus aureus VRSA, read-out: MIC; for MIC-fold improvement vs. vancomycin: VRSA, ratio of MIC of vancomycin and MIC of analogue
In short: as §2

E. faecalis VRE 37 = experiment: MIC, broth microdilution, vancomycin-resistant E. faecalis VRE 37 (VanA); type: cell-based, Enterococcus faecalis; settings: for MIC: Enterococcus faecalis VRE 37 (vancomycin-resistant), read-out: MIC; for MIC-fold improvement vs. vancomycin: VRE 37, ratio of MIC of vancomycin and MIC of analogue
In short: as §2

E. faecalis VRE 29 = experiment: MIC, broth microdilution, vancomycin-resistant E. faecalis VRE 29 (VanA); type: cell-based, Enterococcus faecalis; settings: for MIC: Enterococcus faecalis VRE 29 (vancomycin-resistant), read-out: MIC; for MIC-fold improvement vs. vancomycin: VRE 29, ratio of MIC of vancomycin and MIC of analogue
In short: as §2

B. subtilis PSB3 = experiment: MIC, broth microdilution, B. subtilis PSB3; type: cell-based, Bacillus subtilis; settings: for MICvanc/MICi: ratio of MIC of vancomycin and MIC of analogue
Experimental: as §1

MRSA KS1 = experiment: MIC, broth microdilution, MRSA KS1; type: cell-based, Staphylococcus aureus; settings: for MIC: Staphylococcus aureus MRSA KS1, read-out: MIC
In short: as §2

E. faecalis VSE 1 = experiment: MIC, broth microdilution, vancomycin-sensitive E. faecalis (VSE 1); type: cell-based, Enterococcus faecalis; settings: for MICvanc/MICi / MIC-fold improvement vs. vancomycin: ratio of MIC of vancomycin and MIC of analogue; for MIC: read-out: MIC; for MIC-fold improvement vs. vancomycin: VSE 1
In short: as §2

[6] = Enterococcus faecalis VRE 53 (vancomycin-resistant)
[7] = average of L1210, CEM and HeLa, read-out: Toxicity (IC50) Average
[8] = summary over the three cell lines, read-out: IC50 (L1210, CEM, HeLa), depending on the cell line used
[9] = Enterococcus faecalis VRE 6 (vancomycin-resistant)
[10] = Enterococcus faecalis VSE 1 (vancomycin-sensitive)

Compound | MIC (E. coli XL-1 blue MRF') [µM] | MICvanc/MICi (E. coli XL-1 blue MRF') | MIC-fold improvement vs. vancomycin (MRSA KS89) | MIC (MRSA KS89) [µM] | IC50 [1] [µM] | MIC (MRSA KS2) [µM] | MIC [2] [µM] | MICvanc/MICi (E. faecalis VRE 53; E. faecalis VRE 53) | MIC (E. faecalis VRE 53; E. faecalis VRE 53) [µM] | MIC (E. faecalis VRE 53; [6]) [µM] | MIC-fold improvement vs. vancomycin (E. faecalis VRE 53) | MIC (S. aureus VISA/HIP5827) [µM] | MIC-fold improvement vs. vancomycin (S. aureus VISA/HIP5827) | IC50 [3, 7] [µM] | IC50 [3, 8] [µM] | MIC-fold improvement vs. vancomycin (MRSA KS6) | MIC (MRSA KS6) [µM] | IC50 [4] [µM] | MICvanc/MICi (E. faecalis VRE 6; E. faecalis VRE 6) | MIC (E. faecalis VRE 6; E. faecalis VRE 6) [µM] | other results
C#Cc1ccc(/C=C/C(=O)NCCNC(=O)[C@H]2NC(=O)[C@H]3NC(=O)[C@H](NC(=O)[C@@H]4NC(=O)[C@H](CC(N)=O)NC(=O)[C@H](NC(=O)[C@@H](CC(C)C)NC)[C@H](O)c5ccc(c(Cl)c5)Oc5cc4cc(c5O[C@@H]4O[C@H](CO)[C@@H](O)[C@H](O)[C@H]4O[C@H]4C[C@](C)(N)[C@H](O)[C@H](C)O4)Oc4ccc(cc4Cl)[C@H]3O)c3ccc(O)c(c3)-c3c(O)cc(O)cc32)cc1 [Vanc-Q] | 12.5 (≈ 20.6 µg/mL) | 8 | 1 | 0.78 (≈ 1.28 µg/mL) | > 250 | 1.56 (≈ 2.57 µg/mL) | 0.20 (≈ 0.329 µg/mL) | 64 | 6.25 (≈ 10.3 µg/mL) | 6.25 (≈ 10.3 µg/mL) | 64 | 1.56 (≈ 2.57 µg/mL) | 4 | > 250 | > 250 | 1 | 0.78 (≈ 1.28 µg/mL) | > 250 | 32 | 6.25 (≈ 10.3 µg/mL) | MIC-fold improvement vs. vancomycin (MRSA KS2; MRSA KS2, ratio of MIC of vancomycin and MIC of analogue): 0.5; MIC-fold improvement vs. vancomycin ([2]; VSSA, ratio of MIC of vancomycin and MIC of analogue): 4; MIC (E. faecalis VRE 6; [9]): 6.25 µM (≈ 10.3 µg/mL); MIC-fold improvement vs. vancomycin (E. faecalis VRE 6): 32; IC50 [5]: > 250 µM; MIC (S. aureus VRSA): 12.5 µM (≈ 20.6 µg/mL); MIC-fold improvement vs. vancomycin (S. aureus VRSA): 8; MIC (E. faecalis VRE 37): 50 µM (≈ 82.3 µg/mL); MIC-fold improvement vs. vancomycin (E. faecalis VRE 37): 16; MIC (E. faecalis VRE 29): 25 µM (≈ 41.1 µg/mL); MIC-fold improvement vs. vancomycin (E. faecalis VRE 29): 16; MIC (B. subtilis PSB3): 0.39 µM (≈ 0.642 µg/mL); MICvanc/MICi (B. subtilis PSB3): 1; MIC-fold improvement vs. vancomycin (MRSA KS1; MRSA KS1, ratio of MIC of vancomycin and MIC of analogue): 2; MIC (MRSA KS1): 0.39 µM (≈ 0.642 µg/mL); MICvanc/MICi (E. faecalis VSE 1; E. faecalis VSE 1): 16; MIC (E. faecalis VSE 1; E. faecalis VSE 1): 0.10 µM (≈ 0.165 µg/mL); MIC (E. faecalis VSE 1; [10]): 0.10 µM (≈ 0.165 µg/mL); MIC-fold improvement vs. vancomycin (E. faecalis VSE 1): 16
C#CCCC(=O)NCCCNC(=O)C1NC(=O)C2NC(=O)C(NC(=O)C3NC(=O)C(CC(N)=O)NC(=O)C(NC(=O)C(CC(C)C)NC)C(O)c4ccc(c(Cl)c4)Oc4cc3cc(c4OC3OC(CO)C(O)C(O)C3OC3CC(C)(N)C(O)C(C)O3)Oc3ccc(cc3Cl)C2O)c2ccc(O)c(c2)-c2c(O)cc(O)cc21 (stereo not drawn) [Vanc-B] | 25 (≈ 39.6 µg/mL) | 4 | 1 | 1.56 (≈ 2.47 µg/mL) | > 250 | 0.78 (≈ 1.24 µg/mL) | 0.78 (≈ 1.24 µg/mL) | 32 | 12.5 (≈ 19.8 µg/mL) | 12.5 (≈ 19.8 µg/mL) | 32 | 3.13 (≈ 4.96 µg/mL) | 2 | > 250 | > 250 | 0.5 | 1.56 (≈ 2.47 µg/mL) | > 250 | 4 | 50 (≈ 79.3 µg/mL) | MIC (E. faecalis VRE 6; [9]): 50 µM (≈ 79.3 µg/mL); MIC-fold improvement vs. vancomycin (E. faecalis VRE 6): 4; IC50 [5]: > 250 µM; MIC (S. aureus VRSA): 12.5 µM (≈ 19.8 µg/mL); MIC-fold improvement vs. vancomycin (S. aureus VRSA): 8; MIC (E. faecalis VRE 37): 100 µM (≈ 159 µg/mL); MIC-fold improvement vs. vancomycin (E. faecalis VRE 37): 8; MIC (E. faecalis VRE 29): 100 µM (≈ 159 µg/mL); MIC-fold improvement vs. vancomycin (E. faecalis VRE 29): 4; MIC (B. subtilis PSB3): 0.20 µM (≈ 0.317 µg/mL); MICvanc/MICi (B. subtilis PSB3): 2; MIC (MRSA KS1): 0.78 µM (≈ 1.24 µg/mL); MICvanc/MICi (E. faecalis VSE 1; E. faecalis VSE 1): 2; MIC (E. faecalis VSE 1; E. faecalis VSE 1): 0.78 µM (≈ 1.24 µg/mL); MIC (E. faecalis VSE 1; [10]): 0.78 µM (≈ 1.24 µg/mL); MIC-fold improvement vs. vancomycin (E. faecalis VSE 1): 2
